Paper PMC7211202 (Investigational New Drugs, 2019)
Values joined by “and” are separate entries in the source; they are usually repeats but may differ in a detail not shown here. Equal entries are not always repeated. “Also recorded” adds a separate entry of the source.

Test system: P53WT solid tumors or multiple myeloma
Test: Tumor response (RECIST 1.1, Macdonald, IMWG criteria)
Assay type: in vivo, human
Description: Efficacy response was assessed using revised Response Evaluation Criteria in Solid Tumors (RECIST), version 1.1 [25] Macdonald criteria for GBM [26] or International Myeloma Working Group (IMWG) response criteria for multiple myeloma.

[1] = 240-mg dose expansion, ER + PR+ breast cancer
[2] = 240-mg dose expansion, ER + PR– breast cancer
[3] = 240-mg dose expansion, breast cancer
[4] = 240-mg dose expansion, multiple myeloma
[5] = 240-mg dose expansion, other solid tumors

CC(C)[C@@H](CS(=O)(=O)C(C)C)N1C(=O)[C@@](C)(CC(=O)O)C[C@H](c2cccc(Cl)c2)[C@H]1c1ccc(Cl)cc1 [AMG 232]
Stable disease as a best result (240-mg dose expansion, DDLPS): 7 of 10 | median duration of stable disease (240-mg dose expansion, DDLPS): 2.0 months | duration of stable disease, range [1]: 0.9–4.0 months | median duration of stable disease [1]: 2.0 months | duration of stable disease, range [2]: 0.9–3.8 months | median duration of stable disease [2]: 1.4 months | Stable disease as a best result (240-mg dose expansion, GBM): six of 10 and 6 of 10 | median duration of stable disease (240-mg dose expansion, GBM): 1.8 months | duration of stable disease, range (240-mg dose expansion, WDLPS): 1.9–6.1 months | median duration of stable disease (240-mg dose expansion, WDLPS): 3.9 months | Stable disease as a best result [3]: 7 of 12 | duration of stable disease, range [3]: 1.7–4.0 months | median duration of stable disease [3]: 1.4–2.0 months and 2.0 months | Stable disease as a best result [4]: 5 of 10 | duration of stable disease, range [4]: 1.2–2.0 months | Stable disease as a best result [5]: 10 of 16 | median duration of stable disease [5]: 3.3 months | Patients with progressive disease (240-mg dose expansion, overall): 15 (22%) n (%) | Patients with stable disease (240-mg dose expansion, overall): 45 (66%) n (%) | duration of stable disease, range (240-mg dose expansion, overall): 0.5–12.9 months | median duration of stable disease (240-mg dose expansion, overall): 2.0 months | Patients with unconfirmed partial responses (central evaluation): 4% | Duration of unconfirmed partial response (central evaluation, patient with WDLPS): 2.4 months | Duration of unconfirmed partial response (central evaluation, patient with breast cancer): 2.0 months | Duration of unconfirmed partial response (central evaluation, patient with squamous cell carcinoma): 0.1 months | Patients with stable disease (dose escalation): 31 (80%) n (%) | duration of stable disease, range (dose escalation): 0.7–22.4 mo | median duration of stable disease (dose escalation): 3.1 months | Patients with non-complete response/non-progressive disease (dose escalation, based on non-target lesions): 2 (5%) n (%) | Objective responses (local evaluation, dose escalation and expansion): no responses; also recorded: no objective response
